Measurements taken from PMC6774960, “Design, synthesis and biological evaluation of a series of new resveratrol analogues as potential anti-cancer agents” (Royal Society Open Science, 2019).

How the values were obtained:
A549 cells = assay: MTT anti-proliferation assay, A549; type: cell-based, human; settings: Homo sapiens, A549, 24 h, average of three determinations
Description: (§1) The 22 synthesized resveratrol compounds were evaluated for anti-proliferative activities against three human cancer cell lines, including HepG2, A549 and HeLa cells, using 3-[4,5-dimethylthiazol-2-yl]-2,5 diphenyl tetrazolium bromide (MTT) assays. Paclitaxel, a well-known tubulin inhibitor, was used as a positive control. […] Therefore, the inhibitory activity of the compounds depended not only on the 2-position substitution of acrylic acid, but also on the 3-position substitution of acrylic acid.
(§2) The anti-proliferative and cytotoxicity activity was determined using MTT assay. Human cervical carcinoma HeLa cells, human hepatocellular carcinoma HepG2 cells, human lung carcinoma A549 cells were representative in the anti-proliferation assay, which were obtained from the Shanghai Institute of Cell Biology (Shanghai, China). Normal African green monkey kidney Vero cells were a gift from Dr Xiumiao He at Guangxi University for Nationalities. Normal human hepatocytes LO2 cells were a gift from Dr Xing Lin at Guangxi Medical University. The HepG2, Hela, LO2 and Vero cells were cultured in Dulbecco's modified Eagle's medium (DMEM, Gibco) and the A549 cells were cultured in RPMI1640 (Gibco), both media were supplemented with 10% fetal calf serum and antibiotics (100 IU ml^−1 penicillin, 100 IU ml^−1 streptomycin; Amresco).
(§3) Cells were seeded in 96-well microtiter plates at a density of 1 × 10^4 cells well^−1 and incubated with different concentrations of compound (6.25, 12.50, 25.00, 50.00 to 100.00 µM), cisplatin and paclitaxel in RPMI-1640 or DMEM at 37°C with 5% CO2. After 24 h, cell morphology was observed using a light microscope, and then 20 µl of MTT solution (5 mg ml^−1) was added to the well and incubated for 4 h, then cell survival was determined by measuring the optical density (OD) absorbance at a wavelength of 570 nm using an ELISA microplate reader. The inhibition rate (IR) following each compound treatment was determined by the following equation: IR (%) = (1 − ODexp/ODcon) × 100%, where ODexp and ODcon are the OD of the treated and untreated cells, respectively. Cisplatin and paclitaxel were used as positive control drugs.

HepG2 cells = assay: MTT anti-proliferation assay, HepG2; type: cell-based, human; settings: Homo sapiens, HepG2, 24 h, average of three determinations
Description: as §1, §2, §3

[1] = MTT cytotoxicity test, LO2; type: cell-based, human; settings: human, LO2 cells (normal human hepatocytes), average of three determinations
Description: (§4) Vero cells are non-tumorigenic cell lines and are important raw materials as the research and production of biological products. Vero cells show low tumorigenicity and had been approved for use in the production of human virus vaccines. Thus, Vero cells were chosen as a control for cytotoxicity. All compounds were evaluated for their cell toxicity against Vero and normal human hepatocytes cells line (LO2) using MTT assays.
as §2, §3

HeLa cells = assay: MTT anti-proliferation assay, HeLa; type: cell-based, human; settings: Homo sapiens, HeLa, 24 h, average of three determinations
Description: The 22 synthesized resveratrol compounds were evaluated for anti-proliferative activities against three human cancer cell lines, including HepG2, A549 and HeLa cells, using 3-[4,5-dimethylthiazol-2-yl]-2,5 diphenyl tetrazolium bromide (MTT) assays. Paclitaxel, a well-known tubulin inhibitor, was used as a positive control.
as §2
After 24 h, cell morphology was observed using a light microscope, and then 20 µl of MTT solution (5 mg ml^−1) was added to the well and incubated for 4 h, then cell survival was determined by measuring the optical density (OD) absorbance at a wavelength of 570 nm using an ELISA microplate reader. […] Cisplatin and paclitaxel were used as positive control drugs.

[2] = MTT cytotoxicity test, Vero; type: cell-based, African green monkey; settings: African green monkey, Vero cells (normal African green monkey kidney), average of three determinations
Description: as §4, §2, §3

Compound | IC50 (A549 cells) | IC50 (HepG2 cells) | CC50 at 24 h [1] | IC50 (HeLa cells) | CC50 at 24 h [2] | melting point
COc1ccc(C(=Cc2c(Cl)ccc(Cl)c2Cl)C(=O)O)cc1 [compound u, 2-(4-methoxyphenyl)-3-(2,3,6-trichlorophenyl) acrylic acid] | > 100 µM | > 100 µM | 35 ± 1 µM | > 100 µM | 38.6 ± 0.7 µM | 174 °C
COc1ccc(C=C(C(=O)O)c2cc(C)cc(C)c2)cc1 [compound v, 2-(3,5-dimethylphenyl)-3-(4-methoxyphenyl) acrylic acid] | 61 ± 3 µM | 100 ± 1 µM | 96 ± 6 µM | 51.25 ± 0.01 µM | > 100 µM | 198 to 200 °C
COc1cc(C(=Cc2c(Cl)ccc(Cl)c2Cl)C(=O)O)cc(OC)c1OC [compound n, 3-(2,3,6-trichlorophenyl)-2-(3,4,5-trimethoxyphenyl) acrylic acid] | 27.2 ± 0.9 µM | 79 ± 4 µM | 77 ± 1 µM | 20 ± 2 µM | 63 ± 2 µM | 203 to 204 °C
COc1cc(C(=Cc2cc(C(F)(F)F)ccc2Cl)C(=O)O)cc(OC)c1OC [compound k, 3-(2-chloro-5-(trifluoromethyl)phenyl)-2-(3,4,5-trimethoxyphenyl) acrylic acid] | > 100 µM | 100 ± 0.8 µM | 88 ± 2 µM | > 100 µM | 71 ± 2 µM | 258 °C
COc1cc(C(=Cc2cccc(OC(F)(F)F)c2)C(=O)O)cc(OC)c1OC [compound g, 3-(3-(trifluoromethoxy)phenyl)-2-(3,4,5-trimethoxyphenyl) acrylic acid] | 14 ± 4 µM | 24 ± 2 µM | > 100 µM | 73 ± 5 µM | > 100 µM | 156 to 157 °C
COc1cc(C(=Cc2ccc(Cl)c(Cl)c2)C(=O)O)cc(OC)c1OC [compound a, 3-(3,4-dichlorophenyl)-2-(3,4,5-trimethoxyphenyl) acrylic acid] | 34 ± 2 µM | 50 ± 4 µM | 27 ± 1 µM | 27 ± 2 µM | 28.2 ± 0.5 µM | 233 to 235 °C
CC(=O)O[C@H]1C(=O)[C@@]2(C)[C@H]([C@H](OC(=O)c3ccccc3)[C@]3(O)C[C@H](OC(=O)[C@H](O)[C@@H](NC(=O)c4ccccc4)c4ccccc4)C(C)=C1C3(C)C)[C@]1(OC(C)=O)CO[C@@H]1C[C@@H]2O [paclitaxel, reference compound] | 0.17 ± 0.03 µM | 0.39 ± 0.03 µM | > 100 µM | 0.7 ± 0.1 µM | 98 ± 1 µM | –
COc1ccc(C(=Cc2cccc(C(F)(F)F)c2)C(=O)O)cc1 [compound q, 2-(4-methoxyphenyl)-3-(3-(trifluoromethyl)phenyl) acrylic acid] | 16 ± 3 µM | 19 ± 2 µM | 98 ± 2 µM | 14 ± 1 µM | > 100 µM | 192 to 194 °C
COc1cc(C(=Cc2ccc(OC(F)(F)F)cc2)C(=O)O)cc(OC)c1OC [compound f, 3-(4-(trifluoromethoxy)phenyl)-2-(3,4,5-trimethoxyphenyl) acrylic acid] | 19 ± 2 µM | 18.7 ± 0.9 µM | > 100 µM | 20 ± 3 µM | > 100 µM | 208 °C
COc1cc(C(=Cc2cccc(C(F)(F)F)c2)C(=O)O)cc(OC)c1OC [compound h, 3-(3-(trifluoromethyl)phenyl)-2-(3,4,5-trimethoxyphenyl) acrylic acid] | 32 ± 5 µM | 47 ± 4 µM | 75 ± 4 µM | 26 ± 4 µM | > 100 µM | 162 to 164 °C
COc1cc(C(=Cc2ccc(OC)c(OC)c2Cl)C(=O)O)cc(OC)c1OC [compound l, 3-(2-chloro-3,4-dimethoxyphenyl)-2-(3,4,5-trimethoxyphenyl) acrylic acid] | > 100 µM | > 100 µM | 64 ± 2 µM | 89 ± 4 µM | > 100 µM | 171 to 173 °C
COc1cc(C(=Cc2ccccc2C(F)(F)F)C(=O)O)cc(OC)c1OC [compound i, 3-(2-(trifluoromethyl)phenyl)-2-(3,4,5-trimethoxyphenyl) acrylic acid] | 32 ± 2 µM | 42 ± 2 µM | > 100 µM | 41 ± 4 µM | > 100 µM | 160 to 162 °C
COc1cc(C(=Cc2ccc(C(F)(F)F)cc2)C(=O)O)cc(OC)c1OC [compound j, 3-(4-(trifluoromethyl)phenyl)-2-(3,4,5-trimethoxyphenyl) acrylic acid] | 18 ± 3 µM | 56.66 ± 0.02 µM | > 100 µM | 19 ± 2 µM | > 100 µM | 259 °C
COc1ccc(C(=Cc2c(Cl)cccc2Cl)C(=O)O)cc1 [compound o, 3-(2,6-dichlorophenyl)-2-(4-methoxyphenyl) acrylic acid] | 21.3 ± 0.7 µM | 48 ± 5 µM | > 100 µM | 10 ± 2 µM | > 100 µM | 319 to 320 °C
COc1ccc(C(=Cc2ccc(OC)c(OC)c2Cl)C(=O)O)cc1 [compound t, 3-(2-chloro-3,4-dimethoxyphenyl)-2-(4-methoxyphenyl) acrylic acid] | > 100 µM | 93 ± 3 µM | 87 ± 2 µM | 24 ± 2 µM | 85 ± 1 µM | 202 °C
COc1cc(C(=Cc2c(Cl)cccc2Cl)C(=O)O)cc(OC)c1OC [compound b, 3-(2,6-dichlorophenyl)-2-(3,4,5-trimethoxyphenyl) acrylic acid] | 46 ± 3 µM | 74 ± 4 µM | 92 ± 2 µM | 32 ± 3 µM | > 100 µM | 217 to 218 °C
COc1cc(C(=Cc2ccc(Cl)cc2Cl)C(=O)O)cc(OC)c1OC [compound c, 3-(2,4-dichlorophenyl)-2-(3,4,5-trimethoxyphenyl) acrylic acid] | 30 ± 1 µM | 30 ± 3 µM | > 100 µM | 46 ± 3 µM | 71 ± 2 µM | 228 °C
